“Also recorded” adds a separate entry of the source. Read-outs that look alike come from different tables or passages of the source.
What was measured:
[1] = molecular target: LFA-1 and ICAM-1 (Homo sapiens, UniProt P20701); details: cited from earlier work
[2] = tested on: peripheral blood monocytes; experiment: Number and activity of the total cultured cells (MTT), cytotoxicity check; type: cell-based, human; details: for cellular cytotoxicity to the peripheral blood monocytes: high concentrations (up to 1 mM); for amount of the MTT dye taken up into the cells (total cultured cells): total cells in the plate, varying polyamine concentration
Method: Then, the culture supernatant in the plate was removed with the utmost caution not to soak up the cells adhering on the inside bottom of the plate. This means that all the cells present in the cell culture plate exist on the inside bottom of the plate. […] Absorbance of the cell culture medium was measured at 2 absorbance wavelengths of 570 nm and 690 nm using an absorbance reader (Titertek Multiskan MCC/340, Labsystems, Flow Laboratories Inc., USA). As a result, each polyamine concentration and the total amount of live cells of the cultured peripheral blood monocytes can be confirmed.

[3] = tested on: peripheral blood monocytes; experiment: Peripheral blood monocyte adhesion to culture plate (MTT); type: cell-based, human; details: for inhibition effect on cell adhesion to the cell culture plate: culture for approximately 16 to 24 hours; for number of the cells adhering on the plate surface: cultured with varying concentrations of polyamines for 70 to 80 hours
Method: Peripheral blood monocytes were cultured on a 96-well cell culture plate using the culture medium described above. […] Following the culture, the cell culture plate was washed three times with PBS (−) solution to remove the cells floating in the culture medium. As a result, there remained only the cells adhering on the inside bottom of the cell culture plate. […] The culture supernatant was removed. As a result, there remained only the cells firmly adhering on the inside bottom of the cell culture plate, as described above. […] Thiazolyl blue (MTT) (C18H16N5SBr) (Sigma. St. Louis, USA) was added in the final concentration of 0.35 mg/mL, and the cells were cultured at 37° C. for 2 to 4 hours until the cells were stained. MTT is taken up into cells, and the dye is discolored only in live cells. Therefore, the amount of the live cells existing can be confirmed from the amount of the dye. This means that the larger the amount of the dye is, the higher the number of the cells and the cell activity are. After the cells were sufficiently stained with MTT, the culture supernatant was removed by aspiration. The cells were dissolved by addition of 100 μl of cell lysis solution (2-propanol (isopropanol; Wako Pure Chemical Industries LTD, Osaka, Japan) mixed with 12 M (mol/L) hydrochloric acid (HCl; Wako Pure Chemical Industries LTD, Osaka, Japan)), to recover the dye in the cells. Absorbance in the cell culture plate was measured at 2 absorbance wavelengths of 570 nm and 690 nm using an absorbance reader (Titertek Multiskan MCC/340, Labsystems, Flow Laboratories Inc., USA).

[4] = tested on: peripheral blood monocytes; experiment: Blastogenesis of peripheral blood monocytes by Con-A or PHA (3H-thymidine); type: cell-based, human; details: cultured with 100 μM polyamine for approximately 12 to 18 hours
Method: Following the culture, the cells were washed three times with PBS (−) to remove extracellular polyamines, The washed peripheral blood monocytes were cultured for 64 hours in culture medium (RPMI1640 containing 10% fetal bovine serum) mixed with PHA (Difco Laboratories, Detroit, Mich., USA) or Con-A (Sigma chemical co., St. Louis, USA). Then, ^3H-thymidine (Amersham) was added to the cells, followed by additional culture for 8 hours. Following the culture, the peripheral blood monocytes were recovered, and radioactivity of the cells was measured (liquid scintillation counter, LKB-1205, LKB). Since the peripheral blood monocytes activated by mitogen (PHA, Con-A, or the like) cause blast transformation, the cells take up ^3H-thymidine therein. Accordingly, function of cell activation can be measured by measuring the amount of intracellular ^3H-thymidine.

[5] = tested on: CD18; experiment: Detection of cell membrane differentiation antigen CD18 of human peripheral blood monocyte (FACS); type: cell-based; details: peripheral blood monocytes cultured with polyamine
Excerpt: Human peripheral blood was collected, and peripheral blood monocytes including lymphocyte, monocyte and the like were recovered from the collected blood by specific gravity centrifugation technique using SEPARATE-L (Muto Pure Chemicals Co. LTD., Tokyo, Japan). Next, the recovered peripheral blood monocytes were suspended in PRMI1640 culture medium (Sigma chemical co., St. Louis, USA) mixed with 10% human serum (Wako Pure Chemical Industries LTD., Osaka, Japan), 0.1% L-glutamine (Invitrogen Corp., CA, USA), and 0.01% penicillin-streptomycin (Invitrogen Corp., CA, USA) and cultured in the humidified air at 37° C. containing 5% carbonic acid gas. […] Following culture for a given time, the peripheral blood monocytes were recovered from the culture medium and used in Examples 2, 4, 5, and 6. […]
(§1) After each antibody was added to the cells and reacted in the dark for 20 minutes, positive rate and light intensity of the cell membrane differentiation antigen expressed in the cultured peripheral blood were measured with FACS analyzer (FACSCalibur; manufactured by Becton Dickinson) (Becton Dickinson Japan, Tokyo). […] Further, a negative control was used, and a measurement gate was set to obtain each antibody positive rate of the cells within the gate and average fluorescence intensity of the positive cells.

[6] = tested on: adhesion molecules (CD11b, CD11c, CD31, CD49d, CD49e, CD54, and CD62L); experiment: Detection of adhesion molecules except CD11a and CD18 on human peripheral blood monocyte (FACS); type: cell-based; details: for average fluorescence intensity of adhesion molecules (CD11b, CD11c, CD31, CD49d, CD49e, CD54, and CD62L) except CD11a and CD18: peripheral blood monocytes cultured with polyamine
Excerpt: (§2) Human peripheral blood was collected, and peripheral blood monocytes including lymphocyte, monocyte and the like were recovered from the collected blood by specific gravity centrifugation technique using SEPARATE-L (Muto Pure Chemicals Co. LTD., Tokyo, Japan). Next, the recovered peripheral blood monocytes were suspended in PRMI1640 culture medium (Sigma chemical co., St. Louis, USA) mixed with 10% human serum (Wako Pure Chemical Industries LTD., Osaka, Japan), 0.1% L-glutamine (Invitrogen Corp., CA, USA), and 0.01% penicillin-streptomycin (Invitrogen Corp., CA, USA) and cultured in the humidified air at 37° C. containing 5% carbonic acid gas. […] Following culture for a given time, the peripheral blood monocytes were recovered from the culture medium and used in Examples 2, 4, 5, and 6.
(§3) The peripheral blood monocytes cultured for 16 to 80 hours by the method of Example 1 were collected from the cell culture plate so as not to damage the cells. The collected cells were washed with PBS (−) solution and then fixed using phosphate buffered saline without calcium chloride and without magnesium chloride (hereinafter, referred to as PBS (−); Invitrogen Corporation, GIBCO, Grand Island, N.Y., USA) containing 2% paraformaldehyde (Wako Pure Chemical Industries LTD, Osaka, Japan), so as not to achieve change in cell membrane antigen molecules on the cell surface of the peripheral blood monocytes. The peripheral blood monocytes were further washed, to which antibodies to the cell membrane antigen molecules were then added in an amount corresponding to 5 μL (microliter) per 500000 cells. The antibodies used here are CD2 (FITC label), CD4 (FITC), CD8 (PE label), CD11a (FITC), CD11b (PE), CD11c (PE), CD18 (FITC), CD31 (PE), CD49d (PE), CD49e (PE), CD54 (PE), CD62L (PE), CD95 (FITC), and VIA-PROBE (FITC). All of these antibodies are manufactured by PharMingen (A Becton Dickinson Company, San Jose, Calif., USA).
(§4) After each antibody was added to the cells and reacted in the dark for 20 minutes, positive rate and light intensity of the cell membrane differentiation antigen expressed in the cultured peripheral blood were measured with FACS analyzer (FACSCalibur; manufactured by Becton Dickinson) (Becton Dickinson Japan, Tokyo). The population of the peripheral blood monocytes was of interest in the measurement of florescence of the cell surface, and the measurement of all of the cultured cells was also conducted at the same time. Further, a negative control was used, and a measurement gate was set to obtain each antibody positive rate of the cells within the gate and average fluorescence intensity of the positive cells.

[7] = tested on: peripheral blood monocytes; details: for cellular cytotoxicity: peripheral blood monocytes, VIA-Probe
Excerpt: as §2, §3, §4

[8] = tested on: rats; details: cited from earlier work
[9] = tested on: CD11a; experiment: Detection of cell membrane differentiation antigen CD11a of human peripheral blood monocyte (FACS); type: cell-based; details: for number of the cell expressing CD11a on the cell surface / rate to the total cells of the cells with expression of CD11a or CD18: peripheral blood monocytes cultured with polyamine
Excerpt: as §2
For confirming that obtained experimental results were not derived from changes produced by the polyamines present in the culture medium and kept in contact with the cells for a long time, different peripheral blood monocytes were prepared.
as §3, §4

[10] = tested on: rats; details: cited from earlier work; remark: listed apart in the source
[11] = tested on: psoriasis; details: clinical examples, human; cited from earlier work
[12] = tested on: CD16, CD31, CD49d, and CD54; details: peripheral blood monocyte accidentally infected; cultured with spermine
Method: as §3, with “The antibodies used here are CD2 (FITC label), CD4 (FITC), CD8 (PE label), CD11a (FITC), CD11b (PE), CD11c (PE), CD18 (FITC), CD31 (PE), CD49d (PE), CD49e (PE), CD54 (PE), CD62L (PE), CD95 (FITC), and VIA-PROBE (FITC). All of these antibodies are manufactured by PharMingen (A Becton Dickinson Company, San Jose, Calif., USA).” left out
as §1

[13] = tested on: intestinal mucosa; details: contained in meal; cited from earlier work
[14] = tested on: Daudi cells (Burkitt lymphoma cells); details: cultured overnight with 100 μM spermine, then IL-2 for 72 hours
[15] = tested on: functional cell membrane differentiation antigen except adhesion molecules
Excerpt: as §2, §3, §4

[16] = tested on: vascular endothelial cells; experiment: Peripheral blood monocyte adhesion to vascular endothelial cell (BCECF-AM); type: cell-based, human; details: for number of the cells adhering to the vascular endothelial cells: cultured with 100 or 500 μM polyamine for 72 to 80 hours, compared with culture without
[17] = tested on: vascular endothelial cell; details: cited from earlier work
[18] = peripheral blood monocytes cultured with polyamine (0, 100, 500 μM) for 70 to 80 hours

Chain of LFA-1 and ICAM-1 (P20701 26-1170): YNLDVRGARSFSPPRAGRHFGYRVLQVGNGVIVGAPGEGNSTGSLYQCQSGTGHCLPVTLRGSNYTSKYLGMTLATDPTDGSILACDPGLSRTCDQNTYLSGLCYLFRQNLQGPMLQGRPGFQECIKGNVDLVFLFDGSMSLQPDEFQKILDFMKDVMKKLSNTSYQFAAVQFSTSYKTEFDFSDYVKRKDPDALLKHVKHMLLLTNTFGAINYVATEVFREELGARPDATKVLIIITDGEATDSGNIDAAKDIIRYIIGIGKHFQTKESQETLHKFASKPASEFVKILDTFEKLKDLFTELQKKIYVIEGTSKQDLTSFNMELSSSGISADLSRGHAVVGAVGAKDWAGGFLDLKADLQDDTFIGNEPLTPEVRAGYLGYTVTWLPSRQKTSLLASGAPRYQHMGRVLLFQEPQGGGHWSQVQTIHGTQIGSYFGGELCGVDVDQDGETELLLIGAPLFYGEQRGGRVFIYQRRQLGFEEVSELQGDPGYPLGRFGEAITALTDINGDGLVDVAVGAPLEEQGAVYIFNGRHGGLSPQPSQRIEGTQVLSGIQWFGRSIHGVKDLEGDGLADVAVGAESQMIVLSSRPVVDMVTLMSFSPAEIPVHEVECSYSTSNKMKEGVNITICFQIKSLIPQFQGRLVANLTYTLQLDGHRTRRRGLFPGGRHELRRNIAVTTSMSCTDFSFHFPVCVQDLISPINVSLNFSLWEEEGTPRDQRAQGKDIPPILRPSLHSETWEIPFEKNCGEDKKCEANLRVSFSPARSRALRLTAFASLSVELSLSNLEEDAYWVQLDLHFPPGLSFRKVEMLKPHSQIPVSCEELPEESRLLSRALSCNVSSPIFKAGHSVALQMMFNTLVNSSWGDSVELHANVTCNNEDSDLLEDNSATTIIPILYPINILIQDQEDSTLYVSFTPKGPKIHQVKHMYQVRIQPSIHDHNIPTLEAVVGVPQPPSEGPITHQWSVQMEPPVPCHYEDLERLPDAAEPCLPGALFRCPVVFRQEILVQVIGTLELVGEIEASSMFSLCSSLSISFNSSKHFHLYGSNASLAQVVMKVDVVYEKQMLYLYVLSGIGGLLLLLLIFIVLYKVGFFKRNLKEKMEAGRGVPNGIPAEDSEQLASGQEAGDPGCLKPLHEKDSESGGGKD
Chain of LFA-1 and ICAM-1 (P05107 23-769 partner): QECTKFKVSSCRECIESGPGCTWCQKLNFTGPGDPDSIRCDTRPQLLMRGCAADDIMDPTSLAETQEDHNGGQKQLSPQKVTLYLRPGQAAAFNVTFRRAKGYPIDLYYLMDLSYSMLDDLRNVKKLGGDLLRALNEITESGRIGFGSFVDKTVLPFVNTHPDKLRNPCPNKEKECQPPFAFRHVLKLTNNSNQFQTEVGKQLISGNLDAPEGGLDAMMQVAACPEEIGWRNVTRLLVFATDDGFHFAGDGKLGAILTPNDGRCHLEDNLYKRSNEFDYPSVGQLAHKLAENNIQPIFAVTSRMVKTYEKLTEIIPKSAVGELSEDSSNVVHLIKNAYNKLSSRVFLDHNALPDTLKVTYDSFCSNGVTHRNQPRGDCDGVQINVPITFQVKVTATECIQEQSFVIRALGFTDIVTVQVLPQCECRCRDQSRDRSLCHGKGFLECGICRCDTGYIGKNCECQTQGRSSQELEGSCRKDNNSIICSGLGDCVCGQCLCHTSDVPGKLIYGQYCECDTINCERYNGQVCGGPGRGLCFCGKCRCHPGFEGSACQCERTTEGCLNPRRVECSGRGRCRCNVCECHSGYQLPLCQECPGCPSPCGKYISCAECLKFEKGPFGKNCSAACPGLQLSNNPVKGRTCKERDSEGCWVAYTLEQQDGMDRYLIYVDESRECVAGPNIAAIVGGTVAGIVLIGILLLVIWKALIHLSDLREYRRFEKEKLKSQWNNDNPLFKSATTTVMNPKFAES

| Compound | cellular cytotoxicity to the peripheral blood monocytes [2] | amount of the MTT dye taken up into the cells (total cultured cells) [2] | inhibition effect on cell adhesion to the cell culture plate [3] | number of the cells adhering on the plate surface [3] | blastogenesis by Con-A or PHA [4] | average fluorescence intensity of CD18 [5] | average fluorescence intensity of adhesion molecules (CD11b, CD11c, CD31, CD49d, CD49e, CD54, and CD62L) except CD11a and CD18 [6] | cellular cytotoxicity [7] | number of the cell expressing CD11a on the cell surface [9] | rate to the total cells of the cells with expression of CD11a or CD18 [9] | average fluorescence intensity of CD11a [9, 18] | number of the cells adhering to the vascular endothelial cells [16] | also measured |
| --- | --- | --- | --- | --- | --- | --- | --- | --- | --- | --- | --- | --- | --- |
| CC[C@H](C)C(=O)O[C@H]1C[C@@H](C)C=C2C=C[C@H](C)[C@H](CC[C@@H]3C[C@@H](O)CC(=O)O3)[C@H]21 [lovastatin] |  |  |  |  |  |  |  |  |  |  |  |  | adhesion between LFA-1 and ICAM-1 [1]: blocks adhesion between LFA-1 and ICAM-1 |
| NCCCCNCCCN [spermidine, N-aminobutyl-1,3-diaminopropane] | no cellular cytotoxicity | no reduction | not exhibited | decreased with increase of spermine and spermidine concentrations | rather enhanced | decreased | not decreased | no cellular cytotoxicity | increased | not decreased | inhibited dependently on spermidine concentration |  | amount up to which no side effect is observed ([8]; subacute toxicity test, administration for 6 weeks): up to 83 mg/kg of body weight/day; 50% lethal dose (LD50) ([10]; rats, acute toxicity test): 600 mg/kg of body weight |
| efalizumab: a CD11a antibody |  |  |  |  |  |  |  |  |  |  |  |  | psoriasis symptoms [11]: improved |
| NCCCNCCCCNCCCN [spermine, 4,9-diazadodecane-1,12-diamine] | no cellular cytotoxicity | no change | not exhibited | decreased with increase of spermine and spermidine concentrations | rather enhanced | decreased with increase of spermine concentration | not decreased | no cellular cytotoxicity | increased | not decreased | reduced as spermine concentration was increased; also recorded: strongest | low | expression of cell membrane differentiation antigen such as CD16, 31, 49d, and 54 (average fluorescence intensity) [12]: markedly decreased; concentration in meal at which it has toxicity [13]: ≥ 0.2%; inhibition of cell adhesion to the inside bottom of the culture plate ([3]; plate inverted and centrifuged (500 rpm, 5 minutes) after 70 to 82 hours culture): more remarkable result of the inhibition; cellular cytotoxicity (LAK activity) of the peripheral blood monocytes [14]: reduced; expression rate of adhesion molecules (expression positive rate) ([6]; cells cultured with spermine): not decreased; average fluorescence intensity of CD62L ([6]; peripheral blood monocytes cultured with spermine): obviously increased dependently on spermine concentration; average fluorescence intensity of cell membrane differentiation antigens other than the adhesion molecules ([15]; FIG. 8, cells cultured with spermine): no decrease; expression rate of cell membrane differentiation antigen except adhesion molecules (expression positive rate) ([15]; cells cultured with spermine): not decreased; dead cells (VIA-Probe) ([7]; spermine concentration that most strongly decreased CD11a and CD18 fluorescence): not increased; number of the adhering cells (vascular endothelial cells) ([16]; culture with 500 μM spermine for 20 hours): not decreased; amount up to which no side effect is observed ([8]; rat, in vivo): up to 19 mg/kg of body weight/day; average fluorescence intensity of CD11a (decreasing effect) ([9]; cells cultured for 20 to 26 hours): not observed; number of the cells having strong fluorescent intensity (CD11a histogram) ([9]; cells supplemented with spermine): decreased; average fluorescence intensity of CD11a ([9]; cultured with spermine 16 to 24 hours, washed, then cultured without spermine 48 to 56 hours): decrease of the average fluorescence intensity of CD11a; 50% lethal dose (LD50) ([10]; rat, in vivo): 600 mg/kg of body weight |
| Cl.Cl.NCCCCN [putrescine, 1,4-Butanediamine dihydrochloride, reference compound] |  |  |  | not inhibited |  |  |  |  |  |  | not evident | not inhibited |  |
| CC(C)c1c(C(=O)Nc2ccccc2)c(-c2ccccc2)c(-c2ccc(F)cc2)n1CC[C@@H](O)C[C@@H](O)CC(=O)O [atorvastatin] |  |  |  |  |  |  |  |  |  |  |  |  | monocyte adhesion to vascular endothelial cell [17]: inhibits monocyte adhesion to vascular endothelial cell |
